Assay results as given in paper PMC8899577, “Targeting the anti-apoptotic Bcl-2 family proteins: machine learning virtual screening and biological evaluation of new small molecules” (Theranostics, 2022).

How the values were obtained:
M14 cells = experiment: Flow cytometry subG1 peak (PI staining), M14; type: cell-based, Human; details: 20 µM for 72 h
Protocol: Flow cytometric analysis (BD Accuri™ C6, BD Biosciences) was performed to evaluate cell cycle distribution by propidium iodide (PI) staining, and cell viability by using the PI dye exclusion assay as previously reported.
Figure 5 Analysis of apoptosis induction by IS20 and IS21 in leukemia, melanoma and NSCLC cells. […] (A-F) Reported images are representative of two independent experiments with similar results. HSP72/73 or α-Tubulin are shown as loading and transferring control. (G) Flow cytometric quantification of cells in the subG1 peak of cell cycle distribution by propidium iodide staining in HL60 cell line treated with IS20 or IS21 (20 μM for 24 h) and in M14, H1299 and MDA-MB-231 cell lines treated with IS20 or IS21 (20 μM for 72 h). Data are reported as mean ± SD of three independent experiments. p-values were calculated between control (Ctrl) and treated cells, * p < 0.05. (H) Flow cytometric quantification of cells in the subG1 peak by propidium iodide staining in M14 and H1299 cell lines treated with IS20 or IS21 (20 μM, 72 h) in presence or absence of the pan caspase inhibitor z-VAD (50 μM). p-values were calculated between treated control (Ctrl) cells, # p < 0.01, ## p < 0.001 or between cells treated with IS20 or IS21 alone or in combination with z-VAD, * p < 0.05, ** p < 0.005. (G-H) Data are reported as mean of two (H) or three (G) experiments ± SD.

Bcl-xL = Bcl-xL (Homo sapiens, UniProt Q07817); experiment: SPR binding to immobilized Bcl-xL; details: 25 °C, 2-site fit, highest affinity site
Sequence of Bcl-xL (Q07817 whole entry): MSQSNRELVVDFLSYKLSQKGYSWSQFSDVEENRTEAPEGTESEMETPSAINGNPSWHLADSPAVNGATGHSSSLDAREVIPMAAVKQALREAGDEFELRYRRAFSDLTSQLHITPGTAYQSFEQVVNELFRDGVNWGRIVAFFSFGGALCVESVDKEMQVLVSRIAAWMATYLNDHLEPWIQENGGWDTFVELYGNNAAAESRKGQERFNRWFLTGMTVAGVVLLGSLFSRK
Protocol: FastStep experiments were performed with a SensiQ Pioneer apparatus. Bcl-2 immobilization on COOH5 sensorchips was carried out essentially as previously reported, [40]. All the experiments were carried out at 25 °C in degassed HEPES 20 mM, pH 7.4, NaCl 150 mM, 0.005% surfactant P20 + 2% DMSO (HBSP2%D). […] Each sensorgram is the average of at least three experiments. The decrease in Response Units (RU) after 165 s indicates analyte dissociation from the immobilized Bcl-2 upon HSBP2%D buffer injection. Control SPR experiments were carried out measuring sensorgrams on Bcl-xL and Mcl-1 (ligands) immobilized on COOH5 sensorchips as previously reported at 25 °C in degassed HBSP2%D buffer. […] Each sensorgram is the average of at least three experiments. The decrease in RU after 180 s indicates analyte dissociation from the immobilized ligands upon HSBP2%D buffer injection. Kinetic evaluation of the sensorgrams was carried out using the Qdat 4.0 program; best fittings were obtained with 2 sites and indicated in red (reported KD values refer to dissociation constants of the highest affinity site).
Each sensorgram is the average of at least three experiments.

U937 xenografts = experiment: In vivo tumor growth, U937 xenografts; parameters: species or system athymic CD1 nude mice
Protocol: (§1) All procedures involving mice and their care were authorized and certified by the decree no. 67/97A of the Italian Minister of Health and protocol 2560/97 of the Rome Health Service Unit (ASL RMB). Regina Elena National Cancer Institute approved all the procedures involving animals. 5 x 10^6 U937 (in 50% Matrigel, Corning, NY, USA) or A375 cells were subcutaneously injected in the right flank of 6-8-week-old female immunodeficient athymic CD1 nude mice. IS21 was dissolved in 10% DMSO, 30% PEG400 and 60% NaCl (vehicle). Intraperitoneal treatment of vehicle or IS21 (8 mice for each group) every 24 h started when tumors reached the palpability (6 days for U937 and 7 days for A375 cells). […] Animals were observed daily, weighted two times/week and tumor volume (mm^3) calculated as length × width^2 × π/6. At the end of the treatment the tumors were collected and weighed.
Based on pharmacokinetic analysis, we next evaluated the effect of IS21 on in vivo tumor growth of leukemic and melanoma derived xenografts. To this aim, U937 were injected subcutaneously and treated for two weeks with vehicle or with IS21 (70 mg/kg or 100 mg/kg, 5 days/week).
Figure 9 Analysis in vivo of the effect of IS21 on both leukemia and melanoma models. Analysis of in vivo tumor growth in nude mice injected with (A) U937 and (B) A375 cells and treated with vehicle or with IS21 at the indicated concentrations for (A) two or (B) three weeks. Experiments were repeated twice. * p < 0.05, *** p < 0.0002, **** p < 0.0001.

A375 melanoma xenografts = experiment: In vivo tumor growth, A375 xenografts; details: i.p. 100 mg/kg, 5 days/week
Protocol: as §1
In particular, mice injected with A375 melanoma cells were treated with vehicle or with IS21 (100 mg/kg, 5 days/week) for three weeks.
Experiments were repeated
426 twice. 4 animals/group. * p < 0.01, ** p < 0.001, *** p < 0.0001. (B) Representative images of
427 explanted tumors of two independent experiments. The scale bar represents 1 cm. (C) Analysis of
(D) Anal ysis of mice weight after the in vivo ex periment perform ed
430 as reported in (A). ( A,C, D) D ata are report ed as mean ± SD of two indep endent ex periments. […]

Row | SMILES | subG1 peak of cell cycle distribution, M14 (M14 cells) | Kd (Bcl-xL) [nM] | delay of tumor growth (U937 xenografts; U937, 100 mg/kg until day 22, compared with control or 70 mg/kg) | growth of U937 xenografts (U937 xenografts; i.p. 70 mg/kg or 100 mg/kg, 5 days/week, two weeks) | day after cell injection from which U937 xenograft growth is significantly reduced (U937 xenografts; i.p. 70 mg/kg, 5 days/week, two weeks) [days] | day after cell injection from which U937 xenograft growth is significantly reduced (U937 xenografts; i.p. 100 mg/kg, 5 days/week, two weeks) [days] | day after cell injection from which A375 tumor growth is reduced (A375 melanoma xenografts; three weeks) [days] | in vivo tumor growth of A375 (A375 melanoma xenografts; three weeks) | tolerability of treatment (weight loss, diet consumption, postural and behavioral changes) (A375 melanoma xenografts; tumor-bearing nude mice)
1 | CCCCOc1ccc(C2/C(=C(\O)c3ccc4c(c3)CC(C)O4)C(=O)C(=O)N2c2nnc(SCc3ccc(Cl)cc3)s2)cc1OCC (centres unmarked) [IS20] | presence of subG1 peak | 420 ± 90 | – | – | – | – | – | – | –
2 | CCCCCOc1ccc(C2/C(=C(\O)c3ccc4c(c3)CC(C)O4)C(=O)C(=O)N2c2nnc(SCc3ccc(Cl)cc3)s2)cc1OCC (centres unmarked) [IS21] | presence of subG1 peak | 510 ± 170 | about 11 days | reduced significantly | 19 | 16 | 22 | strongly reduced | highly tolerated
